Where two headings read alike, the source gives them in different places.
Key:
[1] = tested on: peripheral blood mononuclear cells; assay: PHA-induced proliferation of peripheral blood mononuclear cells (thymidine incorporation); type: cell-based; conditions: Homo sapiens, PBMC, read-out: % INHIBITION OF PROLIFERATION
Description: Mononuclear cells were separated from peripheral blood of normal human donors as described by Ferrante and Thong (1978 . . . ). The mononuclear cells were resuspended in RPMI-1640 containing 20% human AB serum and placed into 96 well microtrays (50 μl per well, cell density 4×10^6 cells/ml). Fatty acid was then added in 50 μl and pre-incubated with the cells for 30 min at 37° C. in 5% CO2. Mitogen (PHA, ConA, PWM. Staph, Aureus) was then added in 100 μl and the cells incubated for 66 hours at 37° C. in 5% CO2 before the addition of tritiated thymnidine (1 μCi/well). After a total of 72 h in culture, the cells were harvested and proliferation (thymidine incorporation) and supernatants assayed for the presence of cytokines.

[2] = tested on: chloroquine-resistant P. falciparum strain K; assay: Inhibition of chloroquine-resistant P. falciparum strain K (direct anti-malarial activity); type: cell-based; conditions: All PUFA at 11μm

| Structure (SMILES) | inhibition at 20 µM ([1]; All PUFA at 20μM, PHA-induced) [%] | inhibition at 20 µM [1] [%] | % INHIBITION of P. falciparum [2] [%] |
| --- | --- | --- | --- |
| CC/C=C\C/C=C\C/C=C\C/C=C\C/C=C\CCCC(=O)NCC(=O)O [eicosapentaenoic acid-glycine-OH, Eicosapentaenoic acid-glycine-OH] | 5.4 |  |  |
| CCCCC/C=C\C/C=C\C/C=C\C/C=C\CCCC(=O)N[C@@H](CC(=O)O)C(=O)O [arachidonic acid-aspartic acid-OH, Arachidonic-aspartic acid-OH] |  | 39.7 |  |
| CCN(CC)CCCC(C)Nc1ccnc2cc(Cl)ccc12 (centres unmarked) [Chloroquine, reference compound] |  |  | 20.1 |
| CCCCC/C=C\C/C=C\C/C=C\C/C=C\CCCC(=O)NCC(=O)O [arachidonic acid-glycine-OH, Arachidonic Acid-Glycine-OH] |  | 8 | 84.2 |
| CC/C=C\C/C=C\C/C=C\C/C=C\C/C=C\C/C=C\CCC(=O)NCC(=O)O [docosahexaenoic acid-glycine-OH, Docosahexaenoic acid-glycine-OH] | 16.6 |  | 84.9 |
| CCCCC/C=C\C/C=C\C/C=C\CCCCC(=O)N[C@@H](CC(=O)O)C(=O)O [γ-linolenic acid-aspartic acid-OH, Gamma Linolenic-Aspartic Acid-OH] | 7.3 |  |  |
| CC/C=C\C/C=C\C/C=C\CCCCCCCC(=O)N[C@@H](CC(=O)O)C(=O)O [α-linolenic acid-aspartic acid-OH, Linolenic Acid-Aspartic Acid-OH] | 15.4 |  |  |
| CC/C=C\C/C=C\C/C=C\C/C=C\C/C=C\C/C=C\CCC(=O)N[C@@H](CC(=O)O)C(=O)O [docosahexaenoic acid-aspartic acid-OH, Docosahexaenoic Acid-Aspartic Acid-OH] | 21.1 |  |  |
| CC/C=C\C/C=C\C/C=C\C/C=C\C/C=C\CCCC(=O)N[C@@H](CC(=O)O)C(=O)O [eicosapentaenoic acid-aspartic acid-OH, Eicosapentaenoic acid-aspartic acid-OH] | 20.7 |  |  |
| CCCCC/C=C\C/C=C\C/C=C\CCCCC(=O)NCC(=O)O [γ-linolenic acid-glycine-OH, Gamma Linolenic Acid-Glycine-OH] | 15.6 |  |  |
| CC/C=C\C/C=C\C/C=C\CCCCCCCC(=O)NCC(=O)O [α-linolenic acid-glycine-OH, Linolenic Acid-Glycine-OH] | 29 |  | 81.5 |
